Measurements as given in US10703765B2 (priority 2014, dated 2020).
Structures can show the parent of a compound that is named as a salt.

These compounds were tested against human σ1 receptor (Homo sapiens, UniProt Q99720) (assay: biochemical). Conditions: not given.
Chain of human σ1 receptor (Q99720 whole entry): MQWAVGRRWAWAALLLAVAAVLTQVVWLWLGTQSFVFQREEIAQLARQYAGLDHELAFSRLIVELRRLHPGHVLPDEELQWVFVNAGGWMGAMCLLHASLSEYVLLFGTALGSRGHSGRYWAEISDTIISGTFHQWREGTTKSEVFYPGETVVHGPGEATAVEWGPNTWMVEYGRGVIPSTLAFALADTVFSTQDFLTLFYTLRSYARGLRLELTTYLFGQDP
Type: binding
Parameters: μ and σ1 dual binding: key to the marks not given beside the values
CNC(=O)c1cccc(CCN2CCC3(CC2)CN(c2ccccc2F)C(=O)C(C)O3)c1 (stereo not drawn) [Example 276, 3-(2-(4-(2-fluorophenyl)-2-methyl-3-oxo-1-oxa-4,9-diazaspiro[5.5]undecan-9-yl)ethyl)-N-methylbenzamide] was tested, and the Ki was less than 500 nM. Work on O=C1N(c2ccccc2)CC2(CCN(CC(O)c3ccccc3)CC2)OC12CC2 (stereo not drawn) [Example 277, 8-(2-hydroxy-2-phenylethyl)-12-phenyl-4-oxa-8,12-diazadispiro[2.1.5.3]tridecan-13-one] yielded a Ki of less than 100 nM. Cl.O=C1N(CCCO)CC2(CCN(CCc3ccccc3)CC2)OC12CC2 [Example 279, 12-(3-hydroxypropyl)-8-phenethyl-4-oxa-8,12-diazadispiro[2.1.5.3]tridecan-13-one hydrochloride] was tested, and the “μ and σ1 dual binding” value was “++”. CC1OC2(CCN(CCc3cccc(OCCO)c3)CC2)CN(c2ccccc2F)C1=O (stereo not drawn) [Example 282, 4-(2-fluorophenyl)-9-(3-(2-hydroxyethoxy)phenethyl)-2-methyl-1-oxa-4,9-diazaspiro[5.5]undecan-3-one] gave a Ki of less than 100 nM. In the case of O=C1COC2(CCN(CCc3ccc(O)cc3)CC2)CN1c1ccccc1 [Example 290, 9-(4-hydroxyphenethyl)-4-phenyl-1-oxa-4,9-diazaspiro[5.5]undecan-3-one], the “μ and σ1 dual binding” value is reported as “++”. In the case of CC1OC2(CCN(CCc3ccccc3)CC2)CN(c2ccc(O)cc2)C1=O (stereo not drawn) [Example 293, 4-(4-hydroxyphenyl)-2-methyl-9-phenethyl-1-oxa-4,9-diazaspiro[5.5]undecan-3-one], the “μ and σ1 dual binding” value is reported as “++”. With CC1OC2(CCN(CCc3ccccc3)CC2)CN(c2cccc(O)c2)C1=O (stereo not drawn) [Example 294, 4-(3-hydroxyphenyl)-2-methyl-9-phenethyl-1-oxa-4,9-diazaspiro[5.5]undecan-3-one] the “μ and σ1 dual binding” value was “++”. With CC1OC2(CCN(CCc3ccccc3O)CC2)CN(c2ccccc2)C1=O (stereo not drawn) [Example 295, 9-(2-hydroxyphenethyl)-2-methyl-4-phenyl-1-oxa-4,9-diazaspiro[5.5]undecan-3-one] the Ki was less than 100 nM. With CC1OC2(CCN(CCc3ccccc3)CC2)CN(c2ccccc2O)C1=O (stereo not drawn) [Example 296, 4-(2-hydroxyphenyl)-2-methyl-9-phenethyl-1-oxa-4,9-diazaspiro[5.5]undecan-3-one] the “μ and σ1 dual binding” value was “++”. CC(C)C1OC2(CCN(CCc3ccccc3O)CC2)CN(c2ccccc2F)C1=O (stereo not drawn) [Example 297, 4-(2-fluorophenyl)-9-(2-hydroxyphenethyl)-2-isopropyl-1-oxa-4,9-diazaspiro[5.5]undecan-3-one] gave a Ki of less than 100 nM. For Cl.O=C1COC2(CCN(CCc3ccccc3O)CC2)CN1Cc1ccccn1 [Example 300, 9-(2-hydroxyphenethyl)-4-(pyridin-2-ylmethyl)-1-oxa-4,9-diazaspiro[5.5]undecan-3-one hydrochloride], the “μ and σ1 dual binding” value was “++”. O=C1C(CCCO)OC2(CCN(CCc3ccccc3)CC2)CN1c1ccccc1F (stereo not drawn) [Example 302, 4-(2-fluorophenyl)-2-(3-hydroxypropyl)-9-phenethyl-1-oxa-4,9-diazaspiro[5.5]undecan-3-one] was tested, and the Ki was less than 500 nM. CC1OC2(CCN(CCc3csc(N)n3)CC2)CN(c2ccccc2F)C1=O (stereo not drawn) [Example 303, 9-(2-(2-aminothiazol-4-yl)ethyl)-4-(2-fluorophenyl)-2-methyl-1-oxa-4,9-diazaspiro[5.5]undecan-3-one] showed a Ki of less than 500 nM. CC(C)C1OC2(CCN(CCc3csc(N)n3)CC2)CN(c2ccccc2F)C1=O (stereo not drawn) [Example 306, 9-(2-(2-aminothiazol-4-yl)ethyl)-4-(2-fluorophenyl)-2-isopropyl-1-oxa-4,9-diazaspiro[5.5]undecan-3-one dihydrochloride] was tested, and the “μ and σ1 dual binding” value was “++”. Nc1nc(CCN2CCC3(CC2)CN(c2ccccc2)C(=O)C2(CC2)O3)cs1 [Example 307, 8-[2-(2-aminothiazol-4-yl)ethyl]-12-phenyl-4-oxa-8,12-diazadispiro[2.1.5.3]tridecan-13-one dihydrochloride] was tested, and the Ki was less than 500 nM. In the case of Nc1nc(CCN2CCC3(CC2)CN(Cc2ccc(C(F)(F)F)cn2)C(=O)C2(CC2)O3)cs1 [Example 308, 8-[2-(2-aminothiazol-4-yl)ethyl]-12-{[5-(trifluoromethyl)pyridin-2-yl]methyl}-4-oxa-8,12-diazadispiro[2.1.5.3]tridecan-13-one trihydrochloride], the “μ and σ1 dual binding” value is reported as “++”. O=C1C(CC2CCOCC2)OC2(CCN(CCc3ccccc3)CC2)CN1c1ccccc1F (stereo not drawn) [Example 311, 4-(2-fluorophenyl)-9-phenethyl-2-((tetrahydro-2H-pyran-4-yl)methyl)-1-oxa-4,9-diazaspiro[5.5]undecan-3-one hydrochloride] gave a Ki of less than 500 nM. For CC(C)C1OC2(CCN(CCc3ccccc3)CC2)CN(c2ccccc2F)C1=O (stereo not drawn) [Example 312, 4-(2-fluorophenyl)-2-isopropyl-9-phenethyl-1-oxa-4,9-diazaspiro[5.5]undecan-3-one hydrochloride], the Ki was less than 100 nM.

Same assay, conditions: combined class from Ki-σ1 (human σ1 receptor, A1) and Ki-μ (human μ-opioid receptor, A2) radioligand binding
With CC(C)C1OC2(CCN(CCc3ccccc3OCCO)CC2)CN(c2ccccc2F)C1=O (stereo not drawn) [Example 281, 4-(2-fluorophenyl)-9-(2-(2-hydroxyethoxy)phenethyl)-2-isopropyl-1-oxa-4,9-diazaspiro[5.5]undecan-3-one] the “μ and σ1 dual binding” value was “++”. O=C1COC2(CCN(Cc3ccccc3)CC2)CN1c1ccccc1O [Example 285, 9-benzyl-4-(2-hydroxyphenyl)-1-oxa-4,9-diazaspiro[5.5]undecan-3-one] was tested, and the “μ and σ1 dual binding” value was “++”. With O=C1COC2(CCN(CCc3ccccc3)CC2)CN1c1ccccc1O [Example 286, 4-(2-hydroxyphenyl)-9-phenethyl-1-oxa-4,9-diazaspiro[5.5]undecan-3-one] the “μ and σ1 dual binding” value was “++”. O=C1COC2(CCN(Cc3ccccc3)CC2)CN1c1cccc(O)c1 [Example 287, 9-benzyl-4-(3-hydroxyphenyl)-1-oxa-4,9-diazaspiro[5.5] undecan-3-one] was tested, and the “μ and σ1 dual binding” value was “++”. For Oc1ccc(CCN2CCC3(CC2)CN(c2ccccc2)CCO3)cc1 [Example 292, 4-(2-(4-phenyl-1-oxa-4,9-diazaspiro[5.5]undecan-9-yl)ethyl)phenol], the “μ and σ1 dual binding” value was “++”. O=C1C(CO)OC2(CCN(CCc3ccccc3O)CC2)CN1c1ccccc1F (stereo not drawn) [Example 301, 4-(2-fluorophenyl)-2-(hydroxymethyl)-9-(2-hydroxyphenethyl)-1-oxa-4,9-diazaspiro[5.5]undecan-3-one] was tested, and the “μ and σ1 dual binding” value was “++”.

Same assay, conditions: read-out: μ and σ1 dual binding
Compound CNC(=O)c1ccc(CCN2CCC3(CC2)CN(c2ccccc2)C(=O)C(C)O3)cc1 (stereo not drawn) [Example 274, N-methyl-4-(2-(2-methyl-3-oxo-4-phenyl-1-oxa-4,9-diazaspiro[5.5]undecan-9-yl)ethyl)benzamide hydrochloride] has a Ki of less than 500 nM. CNC(=O)CCN1CC2(CCN(CCc3ccccc3)CC2)OC2(CC2)C1=O [Example 275, N-methyl-3-[13-oxo-8-phenethyl-4-oxa-8,12-diazadispiro[2.1.5.3]tridecan-12-yl]propanamide hydrochloride] gave a Ki greater than 500 nM. With O=C1COC2(CCN(CC(O)c3ccccc3)CC2)CN1Cc1ccc(C(F)(F)F)cn1 (stereo not drawn) [Example 278, 9-(2-hydroxy-2-phenylethyl)-4-((5-(trifluoromethyl)pyridin-2-yl)methyl)-1-oxa-4,9-diazaspiro[5.5]undecan-3-one] the Ki was less than 500 nM. With CC1OC2(CCN(CCc3ccc(N)nc3)CC2)CN(c2ccccc2)C1=O (stereo not drawn) [Example 280, 9-(2-(6-aminopyridin-3-yl)ethyl)-2-methyl-4-phenyl-1-oxa-4,9-diazaspiro[5.5]undecan-3-one] the Ki was greater than 500 nM. O=C1C(CO)OC2(CCN(CCc3ccccc3)CC2)CN1c1ccccc1 (stereo not drawn) [Example 283, 2-(hydroxymethyl)-9-phenethyl-4-phenyl-1-oxa-4,9-diazaspiro[5.5]undecan-3-one] was tested, and the Ki was less than 500 nM. In the case of O=C1COC2(CCN(CCc3ccccc3)CC2)CN1Cc1ncc[nH]1 [Example 284, 4-((1H-imidazol-2-yl)methyl)-9-phenethyl-1-oxa-4,9-diazaspiro[5.5]undecan-3-one hydrochloride], the Ki is reported as greater than 500 nM. O=C1COC2(CCN(CCc3ccccc3)CC2)CN1c1cccc(O)c1 [Example 288, 4-(3-hydroxyphenyl)-9-phenethyl-1-oxa-4,9-diazaspiro[5.5]undecan-3-one] showed a Ki of less than 500 nM. Work on O=C1COC2(CCN(CCc3ccccc3O)CC2)CN1c1ccccc1 [Example 289, 9-(2-hydroxyphenethyl)-4-phenyl-1-oxa-4,9-diazaspiro[5.5]undecan-3-one] yielded a Ki of less than 500 nM. Compound O=C1COC2(CCN(CCc3cccc(O)c3)CC2)CN1c1ccccc1 [Example 291, 9-(3-hydroxyphenethyl)-4-phenyl-1-oxa-4,9-diazaspiro[5.5]undecan-3-one] has a Ki of less than 500 nM. CC1OC2(CCN(CCc3cccc(O)c3)CC2)CN(c2ccccc2F)C1=O (stereo not drawn) [Example 298, 4-(2-fluorophenyl)-9-(3-hydroxyphenethyl)-2-methyl-1-oxa-4,9-diazaspiro[5.5]undecan-3-one] was tested, and the Ki was less than 100 nM. Compound Oc1ccccc1CCN1CCC2(CC1)CN(Cc1ccccc1)CCO2 [Example 299, 2-(2-(4-benzyl-1-oxa-4,9-diazaspiro[5.5]undecan-9-yl)ethyl)phenol] has a Ki of less than 100 nM. Nc1nc(CCN2CCC3(CC2)CN(Cc2ccc(C(F)(F)F)cn2)C(=O)CO3)cs1 [Example 304, 9-(2-(2-aminothiazol-4-yl)ethyl)-4-((5-(trifluoromethyl)pyridin-2-yl)methyl)-1-oxa-4,9-diazaspiro[5.5]undecan-3-one] gave a Ki of less than 500 nM. With CC1OC2(CCN(CCn3nccc3N)CC2)CN(c2ccccc2)C1=O (stereo not drawn) [Example 305, 9-(2-(5-amino-1H-pyrazol-1-yl)ethyl)-2-methyl-4-phenyl-1-oxa-4,9-diazaspiro[5.5]undecan-3-one hydrochloride] the Ki was greater than 500 nM. In the case of CC1OC2(CCN(CCc3csc(N)n3)CC2)CN(c2cnccc2C(F)(F)F)C1=O (stereo not drawn) [Example 309, 9-(2-(2-aminothiazol-4-yl)ethyl)-2-methyl-4-(4-(trifluoromethyl)pyridin-3-yl)-1-oxa-4,9-diazaspiro[5.5]undecan-3-one], the Ki is reported as greater than 500 nM. In the case of O=C1N(CCO)CC2(CCN(CCc3ccccc3)CC2)OC12CC2 [Example 310, 12-(2-hydroxyethyl)-8-phenethyl-4-oxa-8,12-diazadispiro[2.1.5.3]tridecan-13-one hydrochloride], the Ki is reported as greater than 500 nM.
